BigSolDB 2.1

Compound: O=C(O)c1ccccc1
- solubility (mole fraction) (in 2-butanone, 278.65 K): 0.131
- solubility (mole fraction) (in 2-butanone, 284.29 K): 0.148
- solubility (mole fraction) (in 2-butanone, 289.86 K): 0.166
- solubility (mole fraction) (in 2-butanone, 295.54 K): 0.186
- solubility (mole fraction) (in 2-butanone, 301.27 K): 0.206
- solubility (mole fraction) (in 2-butanone, 307.1 K): 0.229
- solubility (mole fraction) (in 2-butanone, 313.04 K): 0.254
- solubility (mole fraction) (in 2-butanone, 319.06 K): 0.281
- solubility (mole fraction) (in 2-butanone, 325.2 K): 0.311
- solubility (mole fraction) (in MIBK, 276.45 K): 0.11
- solubility (mole fraction) (in MIBK, 281.66 K): 0.124
- solubility (mole fraction) (in MIBK, 287.16 K): 0.139
- solubility (mole fraction) (in MIBK, 292.73 K): 0.156
- solubility (mole fraction) (in MIBK, 298.25 K): 0.175
- solubility (mole fraction) (in MIBK, 303.76 K): 0.195
- solubility (mole fraction) (in MIBK, 309.36 K): 0.217
- solubility (mole fraction) (in MIBK, 315.05 K): 0.242
- solubility (mole fraction) (in MIBK, 320.74 K): 0.264
- solubility (mole fraction) (in MIBK, 325.16 K): 0.281
- solubility (mole fraction) (in ethyl acetate, 279.67 K): 0.105
- solubility (mole fraction) (in ethyl acetate, 285.24 K): 0.121
- solubility (mole fraction) (in ethyl acetate, 289.24 K): 0.133
- solubility (mole fraction) (in ethyl acetate, 293.36 K): 0.146
- solubility (mole fraction) (in ethyl acetate, 298.93 K): 0.167
- solubility (mole fraction) (in ethyl acetate, 303.76 K): 0.186
- solubility (mole fraction) (in ethyl acetate, 308.76 K): 0.206
- solubility (mole fraction) (in ethyl acetate, 313.66 K): 0.228
- solubility (mole fraction) (in ethyl acetate, 318.65 K): 0.252
- solubility (mole fraction) (in ethyl acetate, 323.56 K): 0.278
- solubility (mole fraction) (in ethyl acetate, 326.5 K): 0.306
- solubility (mole fraction) (in isopropyl acetate, 276.27 K): 0.0855
- solubility (mole fraction) (in isopropyl acetate, 283.74 K): 0.105
- solubility (mole fraction) (in isopropyl acetate, 288.69 K): 0.118
- solubility (mole fraction) (in isopropyl acetate, 293.67 K): 0.134
- solubility (mole fraction) (in isopropyl acetate, 298.34 K): 0.15
- solubility (mole fraction) (in isopropyl acetate, 303.36 K): 0.168
- solubility (mole fraction) (in isopropyl acetate, 308.33 K): 0.188
- solubility (mole fraction) (in isopropyl acetate, 313.25 K): 0.209
- solubility (mole fraction) (in isopropyl acetate, 318.25 K): 0.232
- solubility (mole fraction) (in isopropyl acetate, 324.02 K): 0.26
- solubility (mole fraction) (in methanol, 278 K): 0.111
- solubility (mole fraction) (in methanol, 285.5 K): 0.129
- solubility (mole fraction) (in methanol, 292.23 K): 0.145
- solubility (mole fraction) (in methanol, 298.99 K): 0.164
- solubility (mole fraction) (in methanol, 304.78 K): 0.18
- solubility (mole fraction) (in methanol, 312.56 K): 0.204
- solubility (mole fraction) (in methanol, 319.32 K): 0.227
- solubility (mole fraction) (in methanol, 323.49 K): 0.241
- solubility (mole fraction) (in n-butanol, 276.92 K): 0.116
- solubility (mole fraction) (in n-butanol, 281.92 K): 0.13
- solubility (mole fraction) (in n-butanol, 291.77 K): 0.16
- solubility (mole fraction) (in n-butanol, 296.56 K): 0.176
- solubility (mole fraction) (in n-butanol, 301.56 K): 0.194
- solubility (mole fraction) (in n-butanol, 311.66 K): 0.234
- solubility (mole fraction) (in n-butanol, 316.79 K): 0.256
- solubility (mole fraction) (in n-butanol, 321.9 K): 0.279
- solubility (mole fraction) (in n-butanol, 327.3 K): 0.306
- solubility (mole fraction) (in n-propanol, 279.06 K): 0.119
- solubility (mole fraction) (in n-propanol, 284.15 K): 0.133
- solubility (mole fraction) (in n-propanol, 289.26 K): 0.148
- solubility (mole fraction) (in n-propanol, 294.47 K): 0.164
- solubility (mole fraction) (in n-propanol, 299.65 K): 0.182
- solubility (mole fraction) (in n-propanol, 304.75 K): 0.2
- solubility (mole fraction) (in n-propanol, 310.06 K): 0.221
- solubility (mole fraction) (in n-propanol, 315.41 K): 0.242
- solubility (mole fraction) (in n-propanol, 320.77 K): 0.266
- solubility (mole fraction) (in n-propanol, 326.16 K): 0.291

Compound: CC(=O)Oc1ccccc1C(=O)O
- solubility (mole fraction) (in MIBK, 277.46 K): 0.0196
- solubility (mole fraction) (in MIBK, 281.76 K): 0.023
- solubility (mole fraction) (in MIBK, 287.96 K): 0.0283
- solubility (mole fraction) (in MIBK, 292.96 K): 0.0331
- solubility (mole fraction) (in MIBK, 300.18 K): 0.0414
- solubility (mole fraction) (in MIBK, 307.27 K): 0.0511
- solubility (mole fraction) (in MIBK, 312.47 K): 0.0594
- solubility (mole fraction) (in MIBK, 318.36 K): 0.07
- solubility (mole fraction) (in MIBK, 327.95 K): 0.0897
- solubility (mole fraction) (in ethyl acetate, 275.86 K): 0.0154
- solubility (mole fraction) (in ethyl acetate, 283.66 K): 0.0204
- solubility (mole fraction) (in ethyl acetate, 289.86 K): 0.0254
- solubility (mole fraction) (in ethyl acetate, 296.16 K): 0.0313
- solubility (mole fraction) (in ethyl acetate, 302.67 K): 0.0384
- solubility (mole fraction) (in ethyl acetate, 308.68 K): 0.0467
- solubility (mole fraction) (in ethyl acetate, 315.16 K): 0.0564
- solubility (mole fraction) (in ethyl acetate, 321.37 K): 0.0676
- solubility (mole fraction) (in ethyl acetate, 327.91 K): 0.0807
- solubility (mole fraction) (in isobutanol, 276.36 K): 0.0098
- solubility (mole fraction) (in isobutanol, 284.46 K): 0.0151
- solubility (mole fraction) (in isobutanol, 289.27 K): 0.0194
- solubility (mole fraction) (in isobutanol, 294.3 K): 0.0247
- solubility (mole fraction) (in isobutanol, 299.16 K): 0.0309
- solubility (mole fraction) (in isobutanol, 303.65 K): 0.0383
- solubility (mole fraction) (in isobutanol, 308.26 K): 0.0469
- solubility (mole fraction) (in isobutanol, 312.61 K): 0.0567
- solubility (mole fraction) (in isobutanol, 316.87 K): 0.0679
- solubility (mole fraction) (in isobutanol, 320.96 K): 0.0807
- solubility (mole fraction) (in isobutanol, 322.96 K): 0.0875
- solubility (mole fraction) (in isobutanol, 326.57 K): 0.1
- solubility (mole fraction) (in isobutyl acetate, 277.86 K): 0.0109
- solubility (mole fraction) (in isobutyl acetate, 281.16 K): 0.0124
- solubility (mole fraction) (in isobutyl acetate, 287.78 K): 0.0157
- solubility (mole fraction) (in isobutyl acetate, 293.97 K): 0.0198
- solubility (mole fraction) (in isobutyl acetate, 300.25 K): 0.0247
- solubility (mole fraction) (in isobutyl acetate, 307.15 K): 0.0306
- solubility (mole fraction) (in isobutyl acetate, 313.56 K): 0.0376
- solubility (mole fraction) (in isobutyl acetate, 320.16 K): 0.046
- solubility (mole fraction) (in isobutyl acetate, 327.15 K): 0.0559
- solubility (mole fraction) (in n-butanol, 277.66 K): 0.0145
- solubility (mole fraction) (in n-butanol, 282.35 K): 0.0183
- solubility (mole fraction) (in n-butanol, 287.35 K): 0.0232
- solubility (mole fraction) (in n-butanol, 292.35 K): 0.0291
- solubility (mole fraction) (in n-butanol, 297.37 K): 0.036
- solubility (mole fraction) (in n-butanol, 301.66 K): 0.044
- solubility (mole fraction) (in n-butanol, 306.16 K): 0.0531
- solubility (mole fraction) (in n-butanol, 310.35 K): 0.0635
- solubility (mole fraction) (in n-butanol, 314.64 K): 0.0752
- solubility (mole fraction) (in n-butanol, 318.75 K): 0.0883
- solubility (mole fraction) (in n-butanol, 323.44 K): 0.103
- solubility (mole fraction) (in n-propanol, 276.36 K): 0.0164
- solubility (mole fraction) (in n-propanol, 282.96 K): 0.0227
- solubility (mole fraction) (in n-propanol, 288.16 K): 0.0286
- solubility (mole fraction) (in n-propanol, 293.16 K): 0.0354
- solubility (mole fraction) (in n-propanol, 297.85 K): 0.0434
- solubility (mole fraction) (in n-propanol, 302.55 K): 0.0527
- solubility (mole fraction) (in n-propanol, 307.06 K): 0.0632
- solubility (mole fraction) (in n-propanol, 311.66 K): 0.0752
- solubility (mole fraction) (in n-propanol, 316.06 K): 0.0887
- solubility (mole fraction) (in n-propanol, 320.45 K): 0.104
- solubility (mole fraction) (in n-propanol, 324.75 K): 0.121
